Patent publication US7459581B2, “Anti-bacterial compounds” (Givaudan S.A., priority 2004, dated 2008)
Converted amounts (≈) assume the structure as drawn. Where two headings read alike, the source gives them in different places.

Tests used:
S. epidermidis Ax 25 [1] = experiment: Bacteriostatic activity (MIC), microtiter turbidity; assay type: cell-based; conditions: Staphylococcus epidermidis, read-out: MIC S. epidermidis Ax 25
From the text: (§1) The different axilla bacteria are isolated from the human axilla according to techniques known in the art, in particular according to standard microbiological practice. They are taxonomically identified by cell morphology, gram-reaction and biochemical tests included in the Api coryne test kit (BioMerieux, France). Strain Staphylococcus epidermidis Ax25 is identified by fatty acid methyl ester analysis (FAME; German type strain collection DSMZ, Germany).
(§2) The strains are maintained on Tryptic soy broth plates, this standard medium being supplemented with 5 g per litre of Polyoxyethylene Sorbitan Monooleate (Tween™ 80). Plates are incubated at 36° C. for a period 48 hours. The bacteria are then swabbed from the plates and suspended in 4 ml of Müller-Hinton broth supplemented with 100 mg of Tween™ 80 per litre (MH-Tween™) and incubated again at 36° C. for 16 hours. Following incubation, the bacterial suspensions are diluted in MH-Tween™ to obtain a final cell density of 10^7 colony forming units per ml. These diluted suspensions of the different test organisms are distributed to different columns of a microtiter plate, 100 μl per well. The test compounds are dissolved in dimethylsulfoxide (DMSO) at various test concentrations and 2.5 μl of these different DMSO solutions are added to the different wells of the test plates. The plates are covered with plastic films and incubated for 24 h at 36° C. with shaking at 250 rpm. The turbidity developing in the microtiter plates is then examined after 24 h to determine microbial growth.

[2] = system: Staphylococcus aureus DSM 799; experiment: as above; assay type: cell-based; conditions: read-out: MIC Staphylococcus aureus DSM 799
From the text: as §1, §2

Escherichia coli DSM 682 [3] = experiment: as above; assay type: cell-based; conditions: read-out: MIC Escherichia coli DSM 682
From the text: as §1, §2

C. xerosis DSM 20170 [4] = experiment: as above; assay type: cell-based; conditions: Corynebacterium xerosis, read-out: MIC C. xerosis DSM 20170
From the text: as §1, §2

Corynebacterium Ax 15 [5] = experiment: as above; assay type: cell-based, Corynebacterium jeikeium; conditions: read-out: MIC Corynebacterium Ax 15
From the text: as §1, §2

Corynebacterium Ax 7 [6] = experiment: as above; assay type: cell-based, Corynebacterium group G; conditions: read-out: MIC Corynebacterium Ax 7
From the text: as §1, §2

C. xerosis DSM 20170 [7] = experiment: Bactericidal activity (MBC), 60 min contact; assay type: cell-based, Corynebacterium xerosis; conditions: complete kill of inoculum after 60 min incubation; regrowth read after 24 h at 36° C.
From the text: as §1, with “Germany). Escherichia coli DSM 682, Staphylococcus aureus DSM 799, and Corynebacterium xerosis DSM 20170 are obtained from the German-type strain collection.” for “Germany).”
as §2, with “growth. The minimal concentration of test compounds inhibiting the growth of an organism by at least 80% is determined as the minimal inhibitory concentration (MIC).” for “growth.”
(§3) The bactericidal effects of the compounds of the present invention are further tested. The bacteria are grown, harvested and diluted under the same conditions as described in example 10 above and added to microtiter plates (100 μl per well), each well containing 2.5 μl of the different DMSO solutions as described above. After 60 min incubation, 0.5 μl of the bacterial culture from each well (corresponding to 5×10^3 cfu in the control treatment) is transferred to a fresh microtiter plate which contained 100 μl per well of fresh medium. The plates are covered with plastic films and incubated for 24 h at 36° C. with shaking at 250 rpm. The turbidity developing in the microtiter plates is then examined after 24 h to determine microbial growth. The minimal concentration of test compounds which completely killed the bacterial inoculum is determined as the minimal bactericidal concentration (MBC).

Corynebacterium Ax 7 [8] = experiment: Bactericidal activity (MBC), 60 min contact; assay type: cell-based, Corynebacterium group G; conditions: complete kill of inoculum after 60 min incubation; regrowth read after 24 h at 36° C.
From the text: as §1, with “Germany). Escherichia coli DSM 682, Staphylococcus aureus DSM 799, and Corynebacterium xerosis DSM 20170 are obtained from the German-type strain collection.” for “Germany).”
as §2, with “growth. The minimal concentration of test compounds inhibiting the growth of an organism by at least 80% is determined as the minimal inhibitory concentration (MIC).” for “growth.”
as §3

[9] = system: Staphylococcus aureus DSM 799; experiment: Bactericidal activity (MBC), 60 min contact; assay type: cell-based; conditions: complete kill of inoculum after 60 min incubation; regrowth read after 24 h at 36° C.
From the text: as §1, with “Germany). Escherichia coli DSM 682, Staphylococcus aureus DSM 799, and Corynebacterium xerosis DSM 20170 are obtained from the German-type strain collection.” for “Germany).”
as §2, with “growth. The minimal concentration of test compounds inhibiting the growth of an organism by at least 80% is determined as the minimal inhibitory concentration (MIC).” for “growth.”
as §3

Escherichia coli DSM 682 [10] = experiment: Bactericidal activity (MBC), 60 min contact; assay type: cell-based; conditions: complete kill of inoculum after 60 min incubation; regrowth read after 24 h at 36° C.
From the text: as §1, with “Germany). Escherichia coli DSM 682, Staphylococcus aureus DSM 799, and Corynebacterium xerosis DSM 20170 are obtained from the German-type strain collection.” for “Germany).”
as §2, with “growth. The minimal concentration of test compounds inhibiting the growth of an organism by at least 80% is determined as the minimal inhibitory concentration (MIC).” for “growth.”
as §3

Corynebacterium Ax 15 [11] = experiment: Bactericidal activity (MBC), 60 min contact; assay type: cell-based, Corynebacterium jeikeium; conditions: complete kill of inoculum after 60 min incubation; regrowth read after 24 h at 36° C.
From the text: as §1, with “Germany). Escherichia coli DSM 682, Staphylococcus aureus DSM 799, and Corynebacterium xerosis DSM 20170 are obtained from the German-type strain collection.” for “Germany).”
as §2, with “growth. The minimal concentration of test compounds inhibiting the growth of an organism by at least 80% is determined as the minimal inhibitory concentration (MIC).” for “growth.”
as §3

S. epidermidis Ax 25 [12] = experiment: Bactericidal activity (MBC), 60 min contact; assay type: cell-based, Staphylococcus epidermidis; conditions: complete kill of inoculum after 60 min incubation; regrowth read after 24 h at 36° C.
From the text: as §1, with “Germany). Escherichia coli DSM 682, Staphylococcus aureus DSM 799, and Corynebacterium xerosis DSM 20170 are obtained from the German-type strain collection.” for “Germany).”
as §2, with “growth. The minimal concentration of test compounds inhibiting the growth of an organism by at least 80% is determined as the minimal inhibitory concentration (MIC).” for “growth.”
as §3

Candida albicans = experiment: Antifungal (fungistatic) activity, MIC; assay type: cell-based; conditions: growth inhibition by at least 80%, 48 h, Saboureaud liquid medium, 10^5 cfu per ml
Procedure: as §2, with “growth. The minimal concentration of test compounds inhibiting the growth of an organism by at least 80% is determined as the minimal inhibitory concentration (MIC).” for “growth.”
(§4) The fungistatic effects of the compounds of the present invention are tested against the standard strains Candida albicans and Aspergillus niger. The strains are maintained on Potato dextrose agar plates. Plates are incubated at 30° C. for a period of 72 hours. The fungal inoculum is then swabbed from the plates and suspended in Saboureaud liquid medium and incubated again at 30° C. for 24 hours in the case of C. albicans. For A. niger the inoculum containing the fungal spores is directly harvested from the agar plates and suspended in distilled water. The inoculum is then diluted in Saboureaud liquid medium to obtain a final cell density of 10^5 colony forming units per ml. The test for fungistatic activity using differently concentrated DMSO stock solutions in microtiter plates is then conducted as described in example 10 for the bacteriostatic activity. The turbidity developing in the microtiter plates is then examined after 48 h to determine fungal growth. The minimal concentration of test compounds inhibiting the growth of an organism by at least 80% is determined as the minimal inhibitory concentration (MIC).

Aspergillus niger = experiment: Antifungal (fungistatic) activity, MIC; assay type: cell-based; conditions: growth inhibition by at least 80%, 48 h, Saboureaud liquid medium, 10^5 cfu per ml
Procedure: as §2, with “growth. The minimal concentration of test compounds inhibiting the growth of an organism by at least 80% is determined as the minimal inhibitory concentration (MIC).” for “growth.”
as §4

[13] = AX25, growth inhibition by at least 80%, 24 h at 36° C., MH-Tween, 10^7 cfu per ml
[14] = DSM799, growth inhibition by at least 80%, 24 h at 36° C., MH-Tween, 10^7 cfu per ml
[15] = DSM682, growth inhibition by at least 80%, 24 h at 36° C., MH-Tween, 10^7 cfu per ml
[16] = DSM20170, growth inhibition by at least 80%, 24 h at 36° C., MH-Tween, 10^7 cfu per ml
[17] = AX15, growth inhibition by at least 80%, 24 h at 36° C., MH-Tween, 10^7 cfu per ml
[18] = AX7, growth inhibition by at least 80%, 24 h at 36° C., MH-Tween, 10^7 cfu per ml

SMILES | MIC (S. epidermidis Ax 25 [1]; AX25, 24 h) | MIC ([2]; DSM799, 24 h) | MIC (Escherichia coli DSM 682 [3]; DSM682, 24 h) | MIC (C. xerosis DSM 20170 [4]; DSM20170, 24 h) | MIC (Corynebacterium Ax 15 [5]; AX15, 24 h) | MIC (Corynebacterium Ax 7 [6]; AX7, 24 h) | MIC (S. epidermidis Ax 25 [1]; [13]) | MIC [2, 14] | MIC (Escherichia coli DSM 682 [3]; [15]) | MIC (C. xerosis DSM 20170 [4]; [16]) | MBC C. xerosis DSM 20170 (C. xerosis DSM 20170 [7]) | MIC (Corynebacterium Ax 15 [5]; [17]) | MBC Corynebacterium Ax 7 (Corynebacterium Ax 7 [8]) | MBC Staphylococcus aureus DSM 799 [9] | MBC Escherichia coli DSM 682 (Escherichia coli DSM 682 [10]) | MIC (Corynebacterium Ax 7 [6]; [18]) | MBC Corynebacterium Ax 15 (Corynebacterium Ax 15 [11]) | MBC S. epidermidis Ax 25 (S. epidermidis Ax 25 [12]) | MIC C. albicans (Candida albicans) | MIC A. niger (Aspergillus niger)
Oc1cc(Cl)ccc1Oc1ccc(Cl)cc1Cl [Compound C4, Triclosan, reference compound] | 0.15 µg/mL (≈ 0.518 µM) | 5 µg/mL (≈ 17.3 µM) | 5 µg/mL (≈ 17.3 µM) | 15 µg/mL (≈ 51.8 µM) | 30 µg/mL (≈ 104 µM) | 30 µg/mL (≈ 104 µM) |  |  |  |  |  |  |  |  |  |  |  |  |  | 
CCCCCCCCC(CCCCCC)COC(=O)CO (stereo not drawn) [Compound 3., Hydroxy-acetic 2-hexyl-decyl ester] |  |  |  |  |  |  | ≤ 19 µg/mL | > 2500 µg/mL | > 2500 µg/mL | > 2500 µg/mL | >0.25 % (weight/volume) | 39 µg/mL (≈ 130 µM) | >0.25 % (weight/volume) | >0.25 % (weight/volume) | >0.25 % (weight/volume) | 2500 µg/mL (≈ 8320 µM) | >0.25 % (weight/volume) | >0.25 % (weight/volume) |  | 
CCCCCCC(CCCC)COC(=O)CO (stereo not drawn) [Compound 2., Hydroxy-acetic acid 2-butyl-octyl ester] |  |  |  |  |  |  | 80 µg/mL (≈ 327 µM) | 310 µg/mL (≈ 1270 µM) | > 2500 µg/mL | 80 µg/mL (≈ 327 µM) | >0.25 % (weight/volume) | 40 µg/mL (≈ 164 µM) | >0.25 % (weight/volume) |  |  | 80 µg/mL (≈ 327 µM) | >0.25 % (weight/volume) | >0.25 % (weight/volume) |  | 
CCCCCCCCC(CCCCCC)COC(=O)CN (stereo not drawn) [Compound 6., 2-Hexyl-decyloxycarbonylmethyl-ammonium chloride] | 5 µg/mL | 20 µg/mL | 20 µg/mL | 10 µg/mL | 5 µg/mL | 5 µg/mL |  |  |  |  | 0.002 % (weight/volume) |  | 0.0005 % (weight/volume) | 0.004 % (weight/volume) | 0.016 % (weight/volume) |  | 0.0005 % (weight/volume) | 0.002 % (weight/volume) | 0.0156 % (weight/volume) | 0.002 % (weight/volume)
CCCCCCCCCCCC(=O)OCC(O)CO (stereo not drawn) [Compound C1, Dodecanoic acid 2,3-dihydroxy-propyl ester, reference compound] | < 80 µg/mL | 80 µg/mL (≈ 292 µM) | > 5000 µg/mL | 320 µg/mL (≈ 1170 µM) | 1250 µg/mL (≈ 4560 µM) | 160 µg/mL (≈ 583 µM) |  |  |  |  |  |  |  |  |  |  |  |  |  | 
CCCCC(CC)COC(=O)CN (stereo not drawn) [Compound 4., 2-Ethyl-hexyloxycarbonylmethyl-ammonium chloride] | 630 µg/mL | 630 µg/mL | 630 µg/mL | 310 µg/mL | 310 µg/mL | 310 µg/mL |  |  |  |  | >0.25 % (weight/volume) |  | 0.25 % (weight/volume) | 0.25 % (weight/volume) | 0.125 % (weight/volume) |  | 0.25 % (weight/volume) | 0.25 % (weight/volume) |  | 
CCCCC(CC)COC(=O)CO (stereo not drawn) [Compound 1., Hydroxy-acetic acid 2-ethyl-hexyl ester] |  |  |  |  |  |  | 1250 µg/mL (≈ 6640 µM) | 2500 µg/mL (≈ 13300 µM) | 1250 µg/mL (≈ 6640 µM) | 1250 µg/mL (≈ 6640 µM) | 0.125 % (weight/volume) | 1250 µg/mL (≈ 6640 µM) | 0.125 % (weight/volume) |  |  | 1250 µg/mL (≈ 6640 µM) | 0.125 % (weight/volume) | 0.25 % (weight/volume) | 0.0625 % (weight/volume) | 0.125 % (weight/volume)
